Reference: article PMC12311387, “Proactive Therapeutic Drug MONiToring to Guide Suppressive Antibiotic Therapy with DALBAvaNcin ( > 12 weeks) in Osteoarticular Infections (MONTALBANO)” (Journal of Bone and Joint Infection, 2025)

Columns and labels:
[1] = 12 PJI patients, 1500 mg day 1, 8, 14 then 1000 mg biweekly from day 28; all Cmin values well above target; ref Söderquist et al., 2024; cited from earlier work
Procedure: Currently, there is considerable heterogeneity in the use of SAT with dalbavancin for OAIs in both the initial and the maintenance doses. For the latter, some proposed regimens range from 500 mg weekly to 500 mg biweekly to 1000 mg biweekly (Martín et al., 2019; Morata et al., 2019; Wunsch et al., 2019). However, none of these studies employed TDM to assess the pharmacological efficacy of such regimens. Söderquist et al. (2024) recently shared their experience with 12 patients treated with long-term ( >12 weeks) dalbavancin for PJI, according to the Swedish national guidelines and introducing ...

[2] = test system: osteoarticular infections (OAIs); test: Clinical effectiveness from chart review in patients with osteoarticular infections; type: in vivo, human
Procedure: We established effectiveness with an assessment of clinical and microbiological outcomes from chart review detected up to 31 October 2024. If the patient was still on dalbavancin treatment, the clinical outcome was assessed as “ongoing treatment”. Otherwise, the assessment could result in the following: (i) completed therapy with clinical success (absence of failure or relapse at the follow-up); (ii) failure (clinical or microbiological failure with uncontrolled infection during dalbavancin treatment; need for medical interventions for the treated episode in addition to the initial program); (iii) relapse (exacerbation of the clinical condition within 6 months after the end of treatment); (iv) discontinuation of therapy due to AEs; (v) discontinuation of therapy due to new hospitalization for other clinical events; (vi) missing data (insufficient details to assess the outcome; lost at follow-up); (vii) death for infection-related conditions; or (viii) death for non-infection-related conditions.

[3] = Therapeutic drug monitoring of plasma dalbavancin Cmin (LC-MS/MS) from the fourth dose onward; type: in vivo, human
Procedure: Included patients received the first three dalbavancin doses on day 1 (T0), day 8 (T1), and day 43 (T2) (Senneville et al., 2023). Subsequent injection timings were personalized and determined using dalbavancin Cmin measured immediately before the dalbavancin administration and maximum plasma concentrations ( Cmax ) measured 30 min after the end of the injection (Fig. 1). Starting from the third dose, Cmin and Cmax values were used in log-linear regression models by plotting logarithmic dalbavancin concentrations with time (Microsoft Excel Software, Microsoft Company, USA) (Cattaneo et al., 2023) to plan the subsequent administration aiming to maintain Cmin levels at ≥8 mg L^−1, as recommended in the recent literature (Cojutti et al., 2021).
Plasma dalbavancin blood samples were assessed using ethylene–diamine–tetraacetic acid (EDTA)-containing Vacutainers®. All samples were centrifuged at 3000 × g and plasma was separated and stored at -20 °C. Dalbavancin quantification was performed through a validated liquid chromatography tandem mass spectrometry method developed and validated according to the EMA guidelines. The analytical process consisted of a fast protein precipitation protocol of 50 µ L of plasma with 400 µ L of precipitation solution (methanol / acetonitrile, 3 / 1), centrifugation at 10 000 × g , 1 : 3 dilutions with water, and analysis. Chromatographic separation was achieved using a gradient (acetonitrile and water with formic acid 0.1 %) on a reversed-phase analytical column (Acquity UPLC BEH C18 1.70 µ m 2.1 × 50 mm; Waters, Milan, Italy). For quantification, analysis was performed in ESI-positive mode by monitoring the transition m/z = 909.45 > 340.2 for dalbavancin. The method was linear from 1 to 500 mg L^−1, with intraday and interday assay imprecision and inaccuracy consistently < 10 % during each analytical run.
The primary outcome was to evaluate the pharmacological efficacy of our proactive TDM-based administration method in maintaining the dalbavancin Cmin level at ≥8 mg L^−1 or ≥4 mg L^−1 taken from the fourth dose onward.
Pharmacological efficacy was defined as the number of instances where Cmin≥8 mg L^−1(or ≥4 mg L^−1) was achieved from the fourth dose onward. […] A tolerance window of up to ±4 d from the calculated injection date was allowed to adapt the model to real-life conditions and improve adherence to the treatment regimen.

Isolated pathogens = test: MIC of pathogens isolated from the patients; type: cell-based; conditions: calculated for one patient only
Description: Table 1 Baseline characteristics of the study population.

[4] = Safety: monitoring of adverse events, renal toxicity and platelet count; type: in vivo, human; conditions: patients n=33, treatment >12 weeks
Procedure: Safety was assessed by monitoring AEs. We defined renal toxicity as a reduction in the estimated glomerular filtration rate (eGFR) to less than 30 mL min^−1/1.73 m^2, accompanied by a decrease of at least 20 % from baseline. A significant reduction in platelet count was considered when the count fell below 100 000 per mm^−3 with a decrease of at least 25 % from baseline.

[5] = cited from earlier work
[6] = only determinations within ±4 d of the date suggested by the model, plasma
[7] = plasma trough determinations from fourth dose onward, 33 OAI patients, TDM-guided dosing, total concentration

Compound: CN[C@H]1C(=O)N[C@@H]2Cc3ccc(cc3)Oc3cc4cc(c3O[C@@H]3O[C@H](C(=O)O)[C@@H](O)[C@H](O)[C@H]3NC(=O)CCCCCCCCC(C)C)Oc3ccc(cc3Cl)[C@@H](O)[C@@H]3NC(=O)[C@H](NC(=O)[C@@H]4NC(=O)[C@@H](NC2=O)c2cc(cc(O)c2Cl)Oc2cc1ccc2O)c1ccc(O)c(c1)-c1c(O[C@H]2O[C@H](CO)[C@@H](O)[C@H](O)[C@@H]2O)cc(O)cc1[C@@H](C(=O)NCCCN(C)C)NC3=O [dalbavancin]
- Cmin [1]: > 8000 ng/mL
- Completed therapy with clinical success, n (%) ([2]; patients n=33): 11 (33.3) n (%)
- Failure, n (%) ([2]; patients n=33): 1 (3) n (%)
- Ongoing, n (%) ([2]; patients n=33, still on treatment with controlled infection at end of study): 18 (54.5) n (%)
- Relapse, n (%) ([2]; patients n=33, within 6 months after end of treatment): 3 (9.1) n (%)
- Cmin ≥4 mg L^−1, n (%), Cmin performed at correct timing (n=95) [3, 6]: 93 (97.9) n (%)
- Cmin ≥8 mg L^−1, n (%), Cmin performed at correct timing (n=95) [3, 6]: 81 (85.3) n (%)
- Cmin ≥4 mg L^−1, n (%), Total Cmin (n=118) [3, 7]: 114 (96.6) n (%)
- Cmin ≥8 mg L^−1, n (%), Total Cmin (n=118) [3, 7]: 93 (78.8) n (%)
- MIC for dalbavancin (Isolated pathogens): < 0.06 µg/mL
- AEs, n (%) [4]: 0 n (%)
- Adverse effects on renal function or platelet count [4]: did not observe any adverse effects on renal function or platelet count
- penetration proportion into bone tissue ([5]; ref Dunne et al., 2015): 13.1%
- half-life ([5]; ref Rappo et al., 2019a): 14.4 days
- total binding protein ([5]; ref Rappo et al., 2019a): 93%
